Here are results for twelve molecules from patent US20260131007A1, “Mannose 6-Phosphate Receptor Binding Compounds for the Degradation of Extracellular Proteins” (Avilar Therapeutics, Inc., priority 2023, published 2026).

Bridge positions count the residues as written; N and C are the ends. Square brackets hold non-standard residues; d marks the D form. Where only a bound is given, the exact number is not on record here.

Sequences and labels used below:
B1: Compound 9 (peptide)
peptide: cyclo(ELVWCT[dP]PDCAWHLG)
modifications: disulfide 5-10; not fully specified (residue 8); also: branched PEG linker structure not given here
B2: Compound 1 (peptide)
peptide: cyclo(ELVWCT[dP]PDCAWHLG)
modifications: disulfide 5-10; not fully specified (residue 8); also: trivalent linker structure not given here
B3: Compound 11 (peptide)
peptide: cyclo(ELVWCT[dP]PDCAWHLG)
modifications: disulfide 5-10; not fully specified (residue 8); also: one triazole-linked A77 group on the PEG8 linker
B4: Compound 10 (peptide)
peptide: cyclo(ELVWCT[dP]PDCAWHLG)
modifications: disulfide 5-10; not fully specified (residue 8); also: trivalent linker structure not given here
B5: Compound 6 (peptide)
peptide: cyclo(ELVWCT[dP]PDCAWHLG)
modifications: disulfide 5-10; not fully specified (residue 8); also: one triazole-linked (2-(6-(but-3-yn-1-yloxy)-3,4,5-trihydroxytetrahydro-2H-pyran-2-yl)ethyl)phosphonic acid group on the PEG8 linker

In one assay the target is T1, Insulin-like growth factor 2 receptor (IGF-1IR, cation-independent mannose-6-phosphate receptor, CI-MPR; hIGF-IIR) (Homo sapiens, UniProt P11717).
T1 construct: purchased R&D Systems 6418-GR
As to the kind of experiment: HTRF-based ternary complex inhibition assay for relative affinity of IGF-IIR ligands. The following applies: competition with MTAC probe for His-tagged hIGF-IIR; biotinylated IgG1; apparent binding affinity; read-out: TCF INH (HTRF) IC50. The procedure:
The apparent binding affinity of Insulin-like growth factor 2 receptor (IGF-1IR, also called the cation- independent mannose-6-phosphate receptor (CI-MPR)) ligands was determined indirectly by competing with a probe molecule for binding to IGF-1IR. The probe is a Mannose 6-Phosphate Ligand (“Ligand”) and binds to hIGF-IIR and IgG1 to form a hIGF-IIR: Ligand: IgG1 ternary complex. The ternary complex was detected by an HTRF readout. The ternary complex is disrupted in the presence of IGF-1IR ligand, resulting in decreased HTRF signal. IGF-1IR ligands of 3-fold dilution series were prepared from 10 mM DMSO stock on a 384-well LDV microplate using Echo Acoustic Liquid Handler (Beckman Coulter Life Sciences) followed by transfer of 600 nL of the solutions to an OptiPlate 384-well microplate (PerkinElmer, 6007290). Manose-6-phosphate (M6P; J&K, 530168) and glucose-6-phosphate (G6P; Sigma, V900924) were prepared from 100 mM stock in the same manner and were used as positive and negative controls, respectively. The wells used as 0% and 100% inhibition controls were prepared by adding 600 nL DMSO. 20 nL of 50 μM MTAC probe was transferred to all wells except the wells used as 100% Inhibition control. 9.4 μL working solution containing 65.1 nM of Biotinylated-IgG1 (Viva 20211108) and 65.1 nM of His-tagged hIGF-IIR (R&D Systems, 6418-GR) in assay buffer 50 mM Tris, pH 7.5, 150 mM NaCl, 50 mM CaCl2, 0.01% Tween-20 was transferred to all wells. The plate was incubated at room temperature for 60 min with gentle shaking to allow molecular interaction to reach equilibration. Following this, 10 μL of HTRF detection solution containing 15 nM Streptavidin-d2 (PerkinElmer, 610SADLA) and 0.7 nM MAb Anti 6HIS—Tb cryptate (PerkinElmer, 61HISTLA) in PPI Terbium detection buffer (PerkinElmer, 61DB10RDF) was added. The assay plate was incubated at room temperature with gentle shaking for 60 min to allow HTRF signal to develop. The plate was gently spun on a centrifuge then placed on a EnVision plate reader (Perkin Elmer, EnVision 2104) to read fluorescence ratio of 665 nm/615 nm. Percent inhibitions were calculated with this equation: % I=100* [1−(X−100% I/(0% I−100% I)] where X is the […] in the presence of IGF-1IR ligand. The apparent binding affinity (presented as IC50) was calculated by fitting the % inhibition data with a non-linear 4-parameter inhibition equation using GraphPad Prism (GraphPad Software, LLC; version 9.4.1).
On to `C#CCCCCNC(=O)Nc1ccc2c(c1)Cc1cc(O[C@H]3O[C@H](CCP(=O)(O)O)[C@@H](O)[C@H](O)[C@@H]3O)ccc1-2` [Compound A83, (2-((2R,3S,4S,5S,6R)-6-((7-(3-(hex-5-yn-1-yl)ureido)-9H-fluoren-2-yl)oxy)-3,4,5-trihydroxytetrahydro-2H-pyran-2-yl)ethyl)phosphonic acid], for which the IC50 is under 10000 nM. Still for that read-out and setting: in the case of `O=P(O)(O)CC[C@H]1O[C@H](c2cn(-c3ccccc3)nn2)[C@@H](O)[C@@H](O)[C@@H]1O` [Compound A84, (2-((2R,3S,4S,5S,6R)-3,4,5-trihydroxy-6-(1-phenyl-1H-1,2,3-triazol-4-yl)tetrahydro-2H-pyran-2-yl)ethyl)phosphonic acid] it was under 10000 nM; in that of `CC(C)(C)OC(=O)N1CCC(n2cc([C@H]3O[C@H](CCP(=O)(O)O)[C@@H](O)[C@H](O)[C@@H]3O)nn2)CC1` [Compound A85, (2-((2R,3S,4S,5S,6R)-6-(1-(1-(tert-butoxycarbonyl)piperidin-4-yl)-1H-1,2,3-triazol-4-yl)-3,4,5-trihydroxytetrahydro-2H-pyran-2-yl)ethyl)phosphonic acid], under 10000 nM; in that of `O=P(O)(O)CC[C@H]1O[C@H](c2cn(C3CCNCC3)nn2)[C@@H](O)[C@@H](O)[C@@H]1O` [Compound A86, (2-((2R,3S,4S,5S,6R)-3,4,5-trihydroxy-6-(1-(piperidin-4-yl)-1H-1,2,3-triazol-4-yl)tetrahydro-2H-pyran-2-yl)ethyl)phosphonic acid], under 10000 nM.

The target of a further assay is T2, hIGF-IIR and IgG1 (ternary complex) (Homo sapiens, UniProt P01857+P11717).
T2 construct: purchased R&D Systems 6418-GR
Nature of the assay: HTRF-based ternary complex formation assay for hIGF-IIR targeting Extracellular Protein Degraders. It counts as binding.
Settings: not given
The text has this: The ternary complex formation assay is designed to identify and determine the potency of Extracellular Protein Degrader molecules which can induce the formation of ternary complex between the Extracellular Protein Degrader hIGF-IIR. Titrating Extracellular Protein Degrader to fixed amount of hIGF-IIR results in a bell-shaped curve (except molecules whose binary complex affinity between Extracellular Protein Degrader and hIGF-IIR). The peak mean represents Extracellular Protein Degrader concentration at which maximum ternary complex is formed. Too much or too little Extracellular Protein Degrader leads to decreased ternary complex formation due to formation of binary complex (Hook effect). Dose response of Extracellular Protein Degrader compounds (16-point 3-fold dilution series, 100X) were prepared by Echo Acoustic Liquid Handler (Beckman Coulter Life Sciences) using 384-well LDV microplate. Then 200 nL of the solutions were transferred to an OptiPlate 384-well microplate (PerkinElmer, 6007290). To the assay plate, 10 μL working solution containing 60 nM of Biotinylated-IgG1 (Viva 20211108) and 60 nM of His-tagged hIGF-IIR (R&D Systems, 6418-GR) in assay buffer 50 mM Tris, pH 7.5, 150 mM NaCl, 50 mM CaCl2, 0.01% Tween-20 were added. The plate was incubated for 60 min at room temperature with gentle shaking to allow molecular interaction to reach equilibration. Following this, 10 μL of HTRF detection solution containing 15 nM Streptavidin-d2 (PerkinElmer, 610SADLA) and 0.7 nM MAb Anti 6HIS—Tb cryptate (PerkinElmer, 61HISTLA) in PPI Terbium detection buffer (PerkinElmer, 61DB10RDF) were added. The assay plate was incubated at room temperature with gentle shaking for 60 min to allow HTRF signal to develop. The plate was gently spun on a centrifuge then placed on an EnVision plate reader (Perkin Elmer, EnVision 2104) to read fluorescence ratio of 665 nm/615 nm. Data were analyzed by fitting with Bell-shaped non-linear regression model using GraphPad Prism (GraphPad Software, LLC; version 9.4.1). Mean fluorescence intensity is graphed versus compound concentration and the EC50 for TCF is calculated from the inflection point of the curve (GraphPad).
Consider `COc1ccc(OC2O[C@H](CCP(=O)(O)Cc3cccc(OCc4cn(CCOCCNC(=O)CCOCC(COCCC(=O)NCCOCCn5cc(COc6cccc(CP(=O)(O)CC[C@@H]7OC(Oc8ccc(OC)cc8)[C@H](O)[C@H](O)[C@H]7O)c6)nn5)(COCCC(=O)NCCOCCn5cc(COc6cccc(CP(=O)(O)CC[C@@H]7OC(Oc8ccc(OC)cc8)[C@H](O)[C@H](O)[C@H]7O)c6)nn5)NC(=O)COCCOCCOCC(=O)N[C@H]5C[C@H]6C(=O)N[C@@H](CC(=O)O)C(=O)N[C@H]7CSSC[C@H](NC(=O)[C@H](Cc8c[nH]c9ccccc89)NC(=O)[C@H](C(C)C)NC(=O)[C@H](CC(C)C)NC(=O)[C@H](CCC(=O)O)NC(=O)CNC(=O)[C@H](CC(C)C)NC(=O)[C@H](Cc8cnc[nH]8)NC(=O)[C@H](Cc8c[nH]c9ccccc89)NC(=O)[C@H](C)NC7=O)C(=O)N[C@@H]([C@@H](C)O)C(=O)N7CCC[C@@H]7C(=O)N6C5)nn4)c3)[C@@H](O)[C@H](O)[C@@H]2O)cc1` (stereo partly drawn) [Compound 1], for which the EC50 is under 50 nM. On to `CC(C)C[C@@H]1NC(=O)[C@H](Cc2cnc[nH]2)NC(=O)[C@H](Cc2c[nH]c3ccccc23)NC(=O)[C@H](C)NC(=O)[C@@H]2CSSC[C@H](NC(=O)[C@H](Cc3c[nH]c4ccccc34)CC(=O)[C@H](C(C)C)NC(=O)[C@H](CC(C)C)NC(=O)[C@H](CCC(=O)O)NC(=O)CNC1=O)C(=O)N[C@@H]([C@@H](C)O)C(=O)N1CCC[C@@H]1C(=O)N1C[C@@H](NC(=O)CCOCCOCCOCCN(CCOCCOCCOCCn3cc(CCO[C@H]4O[C@H](CCP(=O)(O)O)[C@@H](O)[C@H](O)[C@@H]4O)nn3)CCOCCOCCOCCn3cc(CCO[C@H]4O[C@H](CCP(=O)(O)O)[C@@H](O)[C@H](O)[C@@H]4O)nn3)C[C@H]1C(=O)N[C@@H](CC(=O)O)C(=O)N2` [Compound 9], for which the EC50 is under 50 nM.

Staying with this assay, now noted: biotinylated IgG1 and His-tagged hIGF-IIR, 60 nM each; read-out: TCF (HTRF) EC50.
For the molecule `CC(C)C[C@@H]1NC(=O)[C@H](Cc2c[nH]cn2)NC(=O)[C@H](Cc2c[nH]c3ccccc23)NC(=O)[C@H](C)NC(=O)[C@@H]2CSSC[C@H](NC(=O)[C@H](Cc3c[nH]c4ccccc34)NC(=O)[C@H](C(C)C)NC(=O)[C@H](CC(C)C)NC(=O)[C@H](CCC(=O)O)NC(=O)CNC1=O)C(=O)N[C@@H]([C@@H](C)O)C(=O)N1CCC[C@@H]1C(=O)N1C[C@@H](NC(=O)CCOCCOCCOCCOCCOCCOCCOCCOCCn3cc(CCO[C@H]4O[C@H](CCP(=O)(O)O)[C@@H](O)[C@H](O)[C@@H]4O)nn3)C[C@H]1C(=O)N[C@@H](CC(=O)O)C(=O)N2` [Compound 6], the EC50 was under 50 nM.

In the next assay the target is Biotinylated-IgG1 (Viva 20211108). Nature of the assay: HTRF ternary complex formation: compound titrated into 60 nM biotinylated IgG1 + 60 nM His-tagged hIGF-IIR (R&D 6418-GR); grade read by the legend '<50 nM = ***'.
Settings: not given
As for B1, the EC50 is under 50 nM. Take B2: the EC50 was under 50 nM.

Take B3: the EC50 is under 50 nM. Consider B4, for which the EC50 was under 50 nM.

Regarding B5, the EC50 was under 50 nM.
